Source: patent publication US9587266B2, “Mutant luciferases” (University of Massachusetts, priority 2011, dated 2017)

Key:
Type in all cases: biochemical
WT luciferase = target: T1, WT luciferase (Photinus pyralis, UniProt P08659); assay: Titration assay with purified protein
T1 construct: The full firefly (Photinus pyralis) luciferase gene was PCR amplified from pGL3 (Promega); GST (N, cleaved yes); made in house; host or cells: E. coli JM109
Procedure: (§1) The PCR product was cloned into the BamH1 and NotI sites of pGEX6P-1 for bacterial expression. Mutant proteins were created using the Quickchange site-directed mutagenesis kit (Stratagene). Saturating mutagenesis was performed using the used the degenerate codon NNK at sites predicted to impact or alter substrate biding including F247, T251, L286, S347, R337, R218, Q338, Y340, A313, and I351 using the degenerate codon NNK. The point mutants S347A, L286A, A348G, E311A, I351A, A313G, R337A, H245A and L342A were made independently.
(§2) Luminescence assays in 96-well plates were initiated by adding 30 μL 2× substrate in 20 mM Tris pH 7.6, 0.1 mM EDTA, 8 mM MgSO4, 4 mM ATP, and 1 mM TCEP to 30 μL of 20 nM purified luciferase in 20 mM Tris pH 7.6, 0.1 mM EDTA, 1 mM TCEP and 0.4 mg/mL BSA. Titration assays were performed 3 minutes post-substrate addition in a Turner Veritas luminometer with final substrate concentrations ranging from 0.122-250 μM or 0.244-500 μM.

[1] = target: T2, S347A/L286M double mutant luciferase (Photinus pyralis, UniProt P08659, L286M/S347A); assay: Titration assay with purified protein; settings: sustained light emission
T2 construct: The full firefly (Photinus pyralis) luciferase gene was PCR amplified from pGL3 (Promega); GST (N, cleaved yes); made in house; host or cells: E. coli JM109
T2 sequence (P08659 whole entry L286M/S347A): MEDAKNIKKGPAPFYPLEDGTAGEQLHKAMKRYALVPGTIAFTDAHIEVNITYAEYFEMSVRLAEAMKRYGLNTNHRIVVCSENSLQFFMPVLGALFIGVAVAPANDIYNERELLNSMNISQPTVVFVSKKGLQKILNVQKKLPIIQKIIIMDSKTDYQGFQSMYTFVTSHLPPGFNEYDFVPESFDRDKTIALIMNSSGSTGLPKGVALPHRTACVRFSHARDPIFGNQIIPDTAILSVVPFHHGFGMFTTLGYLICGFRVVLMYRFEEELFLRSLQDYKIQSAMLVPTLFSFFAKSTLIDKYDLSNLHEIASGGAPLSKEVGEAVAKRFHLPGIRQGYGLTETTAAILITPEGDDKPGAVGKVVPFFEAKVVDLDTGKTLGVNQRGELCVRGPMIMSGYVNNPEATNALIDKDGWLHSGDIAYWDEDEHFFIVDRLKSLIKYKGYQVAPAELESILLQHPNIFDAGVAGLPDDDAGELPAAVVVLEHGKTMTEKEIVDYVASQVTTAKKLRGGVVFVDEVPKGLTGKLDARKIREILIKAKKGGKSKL
Procedure: as §1, §2

L286M luciferase = target: T3, L286M luciferase (Photinus pyralis, UniProt P08659, L286M); assay: Bioluminescence emission scan
T3 construct: The full firefly (Photinus pyralis) luciferase gene was PCR amplified from pGL3 (Promega); GST (N, cleaved yes); made in house; host or cells: E. coli JM109
T3 sequence (P08659 whole entry L286M): as the sequence (P08659 whole entry L286M/S347A) above, with A347S counted along it
Procedure: Purified mutant luciferases were used in bioluminescence emission and burst kinetics scans.
Luciferase was rapidly injected into a cuvette containing substrate, and the emission from 400-800 nm was recorded in a SPEX FluoroMax-3 fluorimeter with closed excitation slits.

T1 sequence (P08659 whole entry): as the sequence (P08659 whole entry L286M/S347A) above, with M286L, A347S counted along it

## O=C(O)[C@H]1CSC(c2nc3cc4c(cc3s2)NCC4)=N1 [CycLuc1]
WT luciferase
  Apparent Vmax: 9.7 ± 0.1 ×10^−5 cps
WT luciferase; 3 minutes post-substrate addition, read-out: Apparent Km
  Km: 0.1 ± 0.01 µM
[1]
  Vmax higher than wt: 20 fold
L286M luciferase
  Wavelength at Max. Emission: 591 nm
